Results on 6 molecules are retold here after ChEMBL document CHEMBL1201862, “PubChem BioAssay data set” (2004).

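Method: 48-hour compound exposure of cells in 96-well plates, five concentrations, linear interpolation of endpoints. Abbreviation: GI50, concentration required for 50% inhibition of growth.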 Activity calls are given as the source filed them. No stated cut-off is given here; in the data, active = GI50 up to about 1.1 µM and inactive = higher. A value given as a limit tells only on which side of the number the result lay.

Test systems include COLO 205; OVCAR-3; HCT-116; SW-620; A549; NCI-H226; SK-MEL-2; HL-60; 786-0; EKVX; UO-31; SF-539; OVCAR-4; KM12; M14; CAKI-1.
Experiment in all cases: growth of human tumour cells (NCI), 48 h

With `FC(F)(F)c1ccc2nc(Nc3ccc(Cl)c(Cl)c3)c(-c3ccccc3)nc2c1`, the GI50 in the experiment on COLO 205 was 61.8 µM (inactive); in the experiment on OVCAR-3, 37.5 µM (inactive); in the experiment with HCT-116, 7.66 µM (inactive); with SW-620, 33.4 µM (inactive); in the experiment on A549, 17.1 µM (inactive); with NCI-H226 it was > 100 µM (inactive). In addition, the GI50 with SK-MEL-2 is > 100 µM (inactive); in the experiment with HL-60, 8.57 µM (inactive); with 786-0, 12.1 µM (inactive); with EKVX, > 100 µM (inactive); in the experiment on UO-31, > 100 µM (inactive); in the experiment on SF-539, 19.4 µM (inactive).
On to `CC(=O)Nc1[nH]c(=O)[nH]c(=O)c1N(C(C)=O)C(C)=O`, for which the GI50 in the experiment with OVCAR-4, in the experiment on COLO 205, in the experiment on OVCAR-3, in the experiment on KM12, with HCT-116 and in the experiment with SW-620 was > 100 µM (inactive) throughout. The GI50 in the experiment on M14, in the experiment with CAKI-1, in the experiment with A549, in the experiment on NCI-H226, in the experiment on SK-MEL-2 and in the experiment on HL-60 was > 100 µM (inactive) throughout. Moreover, the GI50 with 786-0, with EKVX, in the experiment on UO-31 and with SF-539 was > 100 µM (inactive) throughout.
For the molecule `CS(=O)(=O)OCCN1CCN(C(=O)c2cccc3c(Nc4ccc(S(=O)(=O)N=C(N)N)cc4)c4ccccc4nc23)CC1`, the GI50 with OVCAR-4, in the experiment on COLO 205, with OVCAR-3, with KM12, with HCT-116 and with M14 was > 100 µM (inactive) throughout. Besides, the GI50 is > 100 µM (inactive) in the experiment with CAKI-1; > 100 µM (inactive) with A549; > 100 µM (inactive) in the experiment with NCI-H226; > 10 µM (inactive) with SK-MEL-2; > 100 µM (inactive) in the experiment on HL-60; > 100 µM (inactive) in the experiment on 786-0. The GI50 with UO-31 and with SF-539 was > 100 µM (inactive) throughout.
Take `CCN(CC)CCCNc1nccc2c(C)c3c(cc12)c1cnccc1n3C`: the GI50 in the experiment on OVCAR-4 is 0.0282 µM (active); with COLO 205, 0.249 µM (active); in the experiment with OVCAR-3 it was 0.237 µM (active); with HCT-116, 0.0564 µM (active); in the experiment with SW-620, 0.0233 µM (active); in the experiment on M14 it was 0.26 µM (active). Further, the GI50 with CAKI-1 was 0.144 µM (active); in the experiment with A549, 0.0526 µM (active); in the experiment on 786-0, 0.0927 µM (active); in the experiment with EKVX, 0.294 µM (active); with UO-31 it was 0.748 µM (active); with SF-539, 0.0173 µM (active).
`CN1C(c2ccccc2)CS(=O)(=O)CS1(=O)=O` (stereo not given): the GI50 with OVCAR-4 is > 100 µM (inactive); in the experiment on COLO 205, > 100 µM (inactive); with OVCAR-3, 30.1 µM (inactive); with KM12, > 100 µM (inactive); in the experiment on HCT-116 it was > 100 µM (inactive); with SW-620, > 100 µM (inactive). Also, the GI50 in the experiment with M14, with CAKI-1, in the experiment with A549, in the experiment on SK-MEL-2, in the experiment with 786-0 and with EKVX was > 100 µM (inactive) each time. Moreover, the GI50 with UO-31 and in the experiment on SF-539 was > 100 µM (inactive) each time.
Regarding `Clc1cc(Cl)cc(Nc2nc3ccccc3nc2-c2cccs2)c1`, the GI50 with COLO 205 is 7.23 µM (inactive); in the experiment on OVCAR-3, 29.1 µM (inactive); with HCT-116, 18.5 µM (inactive); in the experiment with SW-620, > 100 µM (inactive); in the experiment on A549 it was 38.5 µM (inactive); with NCI-H226, 40 µM (inactive). The GI50 is > 100 µM (inactive) with SK-MEL-2; 25.8 µM (inactive) in the experiment with HL-60; 17.9 µM (inactive) in the experiment on 786-0; 41.3 µM (inactive) with EKVX; 42.6 µM (inactive) with UO-31; 36.1 µM (inactive) in the experiment with SF-539.
